According to ChEMBL document CHEMBL5724914, “Linking interpersonal differences in gut microbiota composition and drug biotransformation activity” (2024):

Experiments:
[1] = (§1) The drug is tested on Z-028 corresponding to mouse gut metagenome with ENA study accession number: PRJEB37062 and ENA sample accession number: ERS12561827 for biotransformation under anaerobic condition. The drug concentrations were measured over 9 timepoints collected between 0 and 24 hours of incubation by liquid-chromatography-coupled mass spectrometry (LC–MS); conditions: 2 µM
[2] = as §1, with “Z-026” for “Z-028”, “to” for “to mouse gut”, “ERS12561825” for “ERS12561827”; conditions: 2 µM
[3] = as §1, with “Z-023” for “Z-028”, “to” for “to mouse gut”, “ERS12561822” for “ERS12561827”; conditions: 2 µM
[4] = as §1, with “Z-017” for “Z-028”, “ERS12561816” for “ERS12561827”; conditions: 2 µM
[5] = as §1, with “Z-016” for “Z-028”, “ERS12561815” for “ERS12561827”; conditions: 2 µM
[6] = as §1, with “Z-011” for “Z-028”, “ERS12561811” for “ERS12561827”; conditions: 2 µM
[7] = as §1, with “WLS-086” for “Z-028”, “human” for “mouse”, “ERS12561752” for “ERS12561827”; conditions: 2 µM
[8] = as §1, with “WLS-082” for “Z-028”, “human” for “mouse”, “ERS12561751” for “ERS12561827”; conditions: 2 µM
[9] = human gut metagenome, 24 h, 2 µM
[10] = human gut metagenome, 24 h, 2 µM; remark: listed apart in the source
[11] = human gut metagenome, 24 h, 2 µM; remark: listed apart in the source
[12] = human gut metagenome, 24 h, 2 µM; remark: listed apart in the source
[13] = human gut metagenome, 24 h, 2 µM; remark: listed apart in the source
[14] = human gut metagenome, 24 h, 2 µM; remark: listed apart in the source
[15] = human gut metagenome, 24 h, 2 µM; remark: listed apart in the source
[16] = human gut metagenome, 24 h, 2 µM; remark: listed apart in the source
[17] = human gut metagenome, 24 h, 2 µM; remark: listed apart in the source
[18] = human gut metagenome, 24 h, 2 µM; remark: listed apart in the source
[19] = human gut metagenome, 24 h, 2 µM; remark: listed apart in the source
[20] = human gut metagenome, 24 h, 2 µM; remark: listed apart in the source
Also: call rule not given here.

Row | Compound | Bacterial Biotransformation [1] | Bacterial Biotransformation [2] | Bacterial Biotransformation [3] | Bacterial Biotransformation [4] | Bacterial Biotransformation [5] | Bacterial Biotransformation [6] | Bacterial Biotransformation [7] | Bacterial Biotransformation [8] | Bacterial Biotransformation [9] | Bacterial Biotransformation [10] | Bacterial Biotransformation [11] | Bacterial Biotransformation [12] | Bacterial Biotransformation [13] | Bacterial Biotransformation [14] | Bacterial Biotransformation [15] | Bacterial Biotransformation [16] | Bacterial Biotransformation [17] | Bacterial Biotransformation [18] | Bacterial Biotransformation [19] | Bacterial Biotransformation [20]
1 | COc1ccnc(C[S+]([O-])c2nc3ccc(OC(F)F)cc3[nH]2)c1OC (stereo not given) [PANTOPRAZOLE] | Compound metabolized | Compound metabolized | Compound metabolized | Compound metabolized | Compound metabolized | Compound metabolized | Compound metabolized | Compound metabolized | Compound NOT metabolized | Compound metabolized | Compound metabolized | Compound metabolized | Compound metabolized | Compound metabolized | Compound metabolized | Compound metabolized | Compound metabolized | Compound metabolized | Compound metabolized | Compound metabolized
2 | O=C1N=C([O-])NC1(c1ccccc1)c1ccccc1.[Na+] [PHENYTOIN SODIUM] | Compound NOT metabolized | Compound NOT metabolized | Compound NOT metabolized | Compound NOT metabolized | Compound NOT metabolized | Compound NOT metabolized | Compound metabolized | Compound metabolized | Compound metabolized | Compound metabolized | Compound NOT metabolized | Compound NOT metabolized | Compound NOT metabolized | Compound NOT metabolized | Compound metabolized | Compound metabolized | Compound NOT metabolized | Compound NOT metabolized | Compound NOT metabolized | Compound metabolized
3 | CN(CCOc1ccc(CC2SC(=O)NC2=O)cc1)c1ccccn1.O=C(O)/C=C\C(=O)O (stereo not given) [ROSIGLITAZONE MALEATE] | Compound NOT metabolized | Compound NOT metabolized | Compound NOT metabolized | Compound NOT metabolized | Compound NOT metabolized | Compound NOT metabolized | Compound NOT metabolized | Compound NOT metabolized | Compound NOT metabolized | Compound NOT metabolized | Compound NOT metabolized | Compound NOT metabolized | Compound metabolized | Compound metabolized | Compound metabolized | Compound NOT metabolized | Compound NOT metabolized | Compound NOT metabolized | Compound metabolized | Compound metabolized
4 | CC(C)c1nc(N(C)S(C)(=O)=O)nc(-c2ccc(F)cc2)c1/C=C/[C@@H](O)C[C@@H](O)CC(=O)[O-].CC(C)c1nc(N(C)S(C)(=O)=O)nc(-c2ccc(F)cc2)c1/C=C/[C@@H](O)C[C@@H](O)CC(=O)[O-].[Ca+2] [ROSUVASTATIN CALCIUM] | Compound NOT metabolized | Compound NOT metabolized | Compound NOT metabolized | Compound NOT metabolized | Compound NOT metabolized | Compound NOT metabolized | Compound metabolized | Compound metabolized | Compound metabolized | Compound NOT metabolized | Compound NOT metabolized | Compound NOT metabolized | Compound metabolized | Compound NOT metabolized | Compound metabolized | Compound NOT metabolized | Compound NOT metabolized | Compound NOT metabolized | Compound metabolized | Compound metabolized
5 | O=C(O)c1cc(/N=N/c2ccc(S(=O)(=O)Nc3ccccn3)cc2)ccc1O [SULFASALAZINE] | Compound metabolized | Compound metabolized | Compound metabolized | Compound metabolized | Compound metabolized | Compound metabolized | Compound metabolized | Compound metabolized | Compound metabolized | Compound metabolized | Compound metabolized | Compound metabolized | Compound metabolized | Compound metabolized | Compound metabolized | Compound metabolized | Compound metabolized | Compound metabolized | Compound metabolized | Compound metabolized
6 | C=CC[C@@H]1/C=C(\C)C[C@H](C)C[C@H](OC)[C@H]2O[C@@](O)(C(=O)C(=O)N3CCCC[C@H]3C(=O)O[C@H](/C(C)=C/[C@@H]3CC[C@@H](O)[C@H](OC)C3)[C@H](C)[C@@H](O)CC1=O)[C@H](C)C[C@@H]2OC.O [TACROLIMUS] | Compound NOT metabolized | Compound NOT metabolized | Compound NOT metabolized | Compound NOT metabolized | Compound NOT metabolized | Compound NOT metabolized | Compound metabolized | Compound metabolized | Compound metabolized | Compound metabolized | Compound metabolized | Compound NOT metabolized | Compound metabolized | Compound metabolized | Compound metabolized | Compound metabolized | Compound metabolized | Compound metabolized | Compound metabolized | Compound NOT metabolized
7 | CCS(=O)(=O)CCn1c([N+](=O)[O-])cnc1C [TINIDAZOLE] | Compound metabolized | Compound metabolized | Compound metabolized | Compound metabolized | Compound metabolized | Compound metabolized | Compound metabolized | Compound metabolized | Compound metabolized | Compound metabolized | Compound metabolized | Compound metabolized | Compound metabolized | Compound metabolized | Compound metabolized | Compound metabolized | Compound metabolized | Compound metabolized | Compound metabolized | Compound metabolized
8 | COc1ccc(CN2CCNCC2)c(OC)c1OC.Cl.Cl [TRIMETAZIDINE DIHYDROCHLORIDE] | Compound NOT metabolized | Compound NOT metabolized | Compound NOT metabolized | Compound NOT metabolized | Compound NOT metabolized | Compound NOT metabolized | Compound NOT metabolized | Compound NOT metabolized | Compound NOT metabolized | Compound NOT metabolized | Compound NOT metabolized | Compound NOT metabolized | Compound NOT metabolized | Compound NOT metabolized | Compound NOT metabolized | Compound NOT metabolized | Compound NOT metabolized | Compound NOT metabolized | Compound NOT metabolized | Compound NOT metabolized
